# Measurements reported in patent US9296745B2, “Diacylglycerol acyltransferase 2 inhibitors” (Pfizer Inc., priority 2012, dated 2016).
# pIC50: −log10 of the molar value.
# Target: Human DGAT2 (hDGAT2) (Homo sapiens (Human), UniProt Q96PD7)
# Assay: In vitro DGAT2 assay, IC50 determination with hDGAT2 membrane fraction
# Format: biochemical
# Details: geometric mean; background for complete inhibition of DGAT2 obtained with 50 μM (1R,2R)-2-({3′-Fluoro-4′-[(6-fluoro-1,3-benzothiazol-2-yl)amino]-1,1′-biphenyl-4-yl}carbonyl)cyclopentanecarboxylic acid; read-out: DGAT2 IC50
# Method: Recombinant baculovirus for the FLAG-tagged hDGAT2 was generated in SF9 insect cells using Bac-to-Bac baculovirus expression system (Invitrogen) according to the manufacturer's protocol. For the expression of hDGAT2, SF9 cells (20 L) grown in Sf900II media were infected with hDGAT2 baculovirus at a multiplicity of infection of 1 in a Wave Bioreactor System 20/50P wave bag (GE Healthcare). After 40 hours of infection, the cells were then harvested by centrifugation at 5,000×g. The cell pellets were washed by resuspending in phosphate buffered saline (PBS) and collected by centrifugation at 5,000×g. The cell paste was flash frozen in liquid N2 and stored at −80° C. until needed. All operations below were at 4° C. unless otherwise noted. The cells were resuspended in lysis buffer (50 mM Tris-HCl, pH 8.0, 250 mM sucrose) including 1 mM ethylenediaminetetraacetic acid (EDTA) and the complete protease inhibitor cocktail (Roche Diagnostics) at a ratio of 3 ml buffer per 1 g cell paste. The cells were lysed by dounce homogenizer. The cell debris was removed by centrifugation at 1,000×g for 20 min, and the supernatant was centrifuged at 100,000×g for 1 hour. The resulting pellet was rinsed three times by filling ultracentrifuge tubes to the top with ice cold PBS before decanting. The washed pellet was resuspended with gentle stirring for 1 hour in lysis buffer containing 8 mM 3-[(3-cholamidopropyl)dimethylammonio]-1-propanesulfonate (CHAPS) at a ratio of 1 mL buffer per 1 g of original cell paste and centrifuged again at 100,000×g for 1 hour. The resulting supernatant (hDGAT2 membrane fraction) was aliquotted, flash frozen in liquid N2, and stored at −80° C. until use.
# To 1 μL of compounds dissolved in 100% DMSO and spotted at the bottom of each well, 5 μL of 0.04% bovine serum albumin (BSA) (fatty acid free, Sigma Aldrich) was added and the mixture was incubated at room temperature for 20 minutes. To this mixture, 10 μL of hDGAT2 membrane fraction (0.01 mg/mL) diluted in 100 mM Hepes-NaOH, pH 7.4, 20 mM MgCl2 containing 200 nM methyl arachidonyl fluorophosphonate (Cayman Chemical; dried from ethyl acetate stock solution under argon gas and dissolved in DMSO as 5 mM stock) was added. […] The reaction mixtures were incubated at room temperature for 40 min and the reactions were stopped by addition of 5 μL of 1% H3PO4. After the addition of 45 μL MicroScint-E (Perkin-Elmer), plates were sealed with Top Seal-A covers (Perkin-Elmer) and phase partitioning of substrates and products was achieved using a HT-91100 microplate orbital shaker (Big Bear Automation, Santa Clara, Calif.). Plates were centrifuged at 2,000×g for 1 min in an Allegra 6R Centrifuge (Beckman Coulter) and then were sealed again with fresh covers before reading in a 1450 Microbeta Wallac Trilux Scintillation Counter (Perkin Elmer). DGAT2 activity was measured by quantifying the generated product [^14C]tridecanoylglycerol in the upper organic phase.
# Inhibitors were tested at eleven different concentrations to generate IC50 values for each compound. […] Results are reported as geometric mean IC50 values.
# Sequence of Human DGAT2 (hDGAT2) (Q96PD7 whole entry): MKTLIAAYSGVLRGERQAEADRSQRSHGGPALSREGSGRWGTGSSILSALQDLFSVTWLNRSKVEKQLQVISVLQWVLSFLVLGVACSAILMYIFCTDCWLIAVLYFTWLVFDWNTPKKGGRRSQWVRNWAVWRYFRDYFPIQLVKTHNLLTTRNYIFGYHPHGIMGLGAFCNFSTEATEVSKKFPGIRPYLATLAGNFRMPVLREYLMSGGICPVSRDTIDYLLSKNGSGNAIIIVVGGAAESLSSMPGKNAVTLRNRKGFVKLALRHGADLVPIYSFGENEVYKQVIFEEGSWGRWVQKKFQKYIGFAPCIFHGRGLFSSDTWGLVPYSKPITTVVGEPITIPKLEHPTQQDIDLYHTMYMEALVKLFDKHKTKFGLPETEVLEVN
row,SMILES,pIC50
1,"O=C([C@@H]1CCCN(c2ccc3nc(-c4ccnc(C5CC5)n4)[nH]c3n2)C1)N1CCC[C@@H]1CO [Example 66, ((R)-1-(2-(2-Cyclopropylpyrimidin-4-yl)-3H-imidazo[4,5-b]pyridin-5-yl)piperidin-3-yl)((R)-2-(hydroxymethyl)pyrrolidin-1-yl)methanone]",5.98
2,"C[C@@H]1CCCN1C(=O)[C@@H]1CCCN(c2ccc3nc(-c4ccnc(C5CC5)n4)[nH]c3n2)C1 [Example 67, ((R)-1-(2-(2-Cyclopropylpyrimidin-4-yl)-3H-imidazo[4,5-b]pyridin-5-yl)piperidin-3-yl)((R)-2-methylpyrrolidin-1-yl)methanone]",7.24
3,"O=C([C@@H]1CCCN(c2ccc3nc(-c4ccnc(C5CC5)n4)[nH]c3n2)C1)N1C[C@@H](F)[C@H](F)C1 [Example 68, ((R)-1-(2-(2-Cyclopropylpyrimidin-4-yl)-3H-imidazo[4,5-b]pyridin-5-yl)piperidin-3-yl)((3R,4R)-3,4-difluoropyrrolidin-1-yl)methanone]",7.26
4,"O=C([C@@H]1CCCN(c2ccc3nc(-c4ccnc(C5CC5)n4)[nH]c3n2)C1)N1CC[C@@H](F)C1 [Example 69, ((R)-1-(2-(2-Cyclopropylpyrimidin-4-yl)-3H-imidazo[4,5-b]pyridin-5-yl)piperidin-3-yl)((R)-3-fluoropyrrolidin-1-yl)methanone]",7.45
5,"O=C([C@@H]1CCCN(c2ccc3nc(-c4ccnc(C5CC5)n4)[nH]c3n2)C1)N1CCOCC1 [Example 70, (R)-(1-(2-(2-Cyclopropylpyrimidin-4-yl)-3H-imidazo[4,5-b]pyridin-5-yl)piperidin-3-yl)(morpholino)methanone]",6.79
6,"CN(C)C(=O)[C@@H]1CCCN(c2ccc3nc(-c4ccnc(C5CC5)n4)[nH]c3n2)C1 [Example 71, (R)-1-(2-(2-Cyclopropylpyrimidin-4-yl)-3H-imidazo[4,5-b]pyridin-5-yl)-N,N-dimethylpiperidine-3-carboxamide]",5.83
7,Cc1cnn(C2(c3nc4ccc(N5CCC[C@@H](C(=O)N6CCCC6)C5)nc4[nH]3)CC2)c1 [Example 72],6.98
8,"O=C([C@@H]1CCCN(c2ccc3nc(C4(n5cc(C6CC6)cn5)CC4)[nH]c3n2)C1)N1CCCC1 [Example 77, (R)-(1-(2-(1-(4-Cyclopropyl-1H-pyrazol-1-yl)cyclopropyl)-3H-imidazo[4,5-b]pyridin-5-yl)piperidin-3-yl)(pyrrolidin-1-yl)methanone]",6.97
9,"O=C([C@@H]1CCCN(c2ccc3nc(C4(n5cccn5)CC4)[nH]c3n2)C1)N1CCCC1 [Example 79, (R)-(1-(2-(1-(1H-Pyrazol-1-yl)cyclopropyl)-3H-imidazo[4,5-b]pyridin-5-yl)piperidin-3-yl)(pyrrolidin-1-yl)methanone]",6.64
10,"O=C([C@@H]1CCCN(c2ccc3nc(C4(n5cccn5)CCC4)[nH]c3n2)C1)N1CCCC1 [Example 80, (R)-(1-(2-(1-(1H-Pyrazol-1-yl)cyclobutyl)-3H-imidazo[4,5-b]pyridin-5-yl)piperidin-3-yl)(pyrrolidin-1-yl)methanone]",5.85
11,"O=C([C@@H]1CCCN(c2ccc3nc(-c4nc(C5CC5)cs4)[nH]c3n2)C1)N1CCCC1 [Example 84, (R)-(1-(2-(4-Cyclopropylthiazol-2-yl)-3H-imidazo[4,5-b]pyridin-5-yl)piperidin-3-yl)(pyrrolidin-1-yl)methanone]",8.02
12,"O=C([C@@H]1CCCN(c2ccc3nc(C4(Cc5ccccc5)COC4)[nH]c3n2)C1)N1CCCC1 [Example 85, (R)-(1-(2-(3-Benzyloxetan-3-yl)-3H-imidazo[4,5-b]pyridin-5-yl)piperidin-3-yl)(pyrrolidin-1-yl)methanone]",5.94

# Other lines, results leading:
row,pIC50,SMILES
1,6.54,"Cc1cc(C2(c3nc4ccc(N5CCC[C@@H](C(=O)N6CCCC6)C5)nc4[nH]3)CC2)on1 [Example 86, (R)-(1-(2-(1-(3-Methylisoxazol-5-yl)cyclopropyl)-3H-imidazo[4,5-b]pyridin-5-yl)piperidin-3-yl)(pyrrolidin-1-yl)methanone]"
2,6.99,"Cc1cc(C2(c3nc4ccc(N5CCC[C@@H](C(=O)N6CCCC6)C5)nc4[nH]3)CC2)no1 [Example 87, (R)-(1-(2-(1-(5-Methylisoxazol-3-yl)cyclopropyl)-3H-imidazo[4,5-b]pyridin-5-yl)piperidin-3-yl)(pyrrolidin-1-yl)methanone]"
3,6.72,"O=C([C@@H]1CCCN(c2ccc3nc(C4(c5cccnc5)CCC4)[nH]c3n2)C1)N1CCCC1 [Example 88, (R)-(1-(2-(1-(Pyridin-3-yl)cyclobutyl)-3H-imidazo[4,5-b]pyridin-5-yl)piperidin-3-yl)(pyrrolidin-1-yl)methanone]"
4,6.26,"Cc1ccn(C2(c3nc4ccc(N5CCC[C@@H](C(=O)N6CCCC6)C5)nc4[nH]3)CC2)n1 [Example 89, (R)-(1-(2-(1-(3-Methyl-1H-pyrazol-1-yl)cyclopropyl)-3H-imidazo[4,5-b]pyridin-5-yl)piperidin-3-yl)(pyrrolidin-1-yl)methanone]"
5,6.50,"Cc1ccnn1C1(c2nc3ccc(N4CCC[C@@H](C(=O)N5CCCC5)C4)nc3[nH]2)CC1 [Example 90, (R)-(1-(2-(1-(5-methyl-1H-pyrazol-1-yl)cyclopropyl)-3H-imidazo[4,5-b]pyridin-5-yl)piperidin-3-yl)(pyrrolidin-1-yl)methanone]"
6,6.62,"COc1ccccc1C1(c2nc3ccc(N4CCC[C@@H](C(=O)N5CCCC5)C4)nc3[nH]2)CC1 [Example 92, (R)-(1-(2-(1-(2-Methoxyphenyl)cyclopropyl)-3H-imidazo[4,5-b]pyridin-5-yl)piperidin-3-yl)(pyrrolidin-1-yl)methanone]"
7,6.69,"O=C([C@@H]1CCCN(c2ccc3nc(C4(c5ccon5)CC4)[nH]c3n2)C1)N1CCCC1 [Example 93, (R)-(1-(2-(1-(Isoxazol-3-yl)cyclopropyl)-3H-imidazo[4,5-b]pyridin-5-yl)piperidin-3-yl)(pyrrolidin-1-yl)methanone]"
8,7.43,"CCOC(=O)c1cc(OC)nc(-c2nc3ccc(N4CCC[C@@H](C(=O)N5CCCC5)C4)nc3[nH]2)c1 [Example 96, (R)-Ethyl 2-methoxy-6-(5-(3-(pyrrolidine-1-carbonyl)piperidin-1-yl)-3H-imidazo[4,5-b]pyridin-2-yl)isonicotinate]"
9,7.01,"Cc1cccc(C2(c3nc4ccc(N5CCC[C@@H](C(=O)N6CCCC6)C5)nc4[nH]3)CC2)c1 [Example 97, (R)-Pyrrolidin-1-yl(1-(2-(1-m-tolylcyclopropyl)-3H-imidazo[4,5-b]pyridin-5-yl)piperidin-3-yl)methanone]"
10,7.03,"O=C([C@@H]1CCCN(c2ccc3nc(-c4cc(C5CC5)ccn4)[nH]c3n2)C1)N1CCCC1 [Example 98, (R)-(1-(2-(4-Cyclopropylpyridin-2-yl)-3H-imidazo[4,5-b]pyridin-5-yl)piperidin-3-yl)(pyrrolidin-1-yl)methanone]"
11,7.14,"O=C([C@@H]1CCCN(c2ccc3nc(-c4nccc(C5CC5)n4)[nH]c3n2)C1)N1CCCC1 [Example 99, (R)-(1-(2-(4-Cyclopropylpyrimidin-2-yl)-3H-imidazo[4,5-b]pyridin-5-yl)piperidin-3-yl)(pyrrolidin-1-yl)methanone]"
12,7.32,"CNS(=O)(=O)c1cncc(-c2nc3ccc(N4CCC[C@@H](C(=O)N5CCCC5)C4)nc3[nH]2)c1 [Example 100, (R)-N-Methyl-5-(5-(3-(pyrrolidine-1-carbonyl)piperidin-1-yl)3H-imidazo[4,5-b]pyridin-2-yl)pyridine-3-sulfonamide]"

# Same assay, conditions: geometric mean; background for complete inhibition of DGAT2 obtained with Example 196-A instead of the cyclopentanecarboxylic acid reference; read-out: DGAT2 IC50 (nM), values in the parentheses
row,IC50,SMILES
1,238 nM,"O=C([C@@H]1CCCN(c2ccc3nc(C4(n5cccn5)CC4)[nH]c3n2)C1)N1CCCC1 [Example 79, (R)-(1-(2-(1-(1H-Pyrazol-1-yl)cyclopropyl)-3H-imidazo[4,5-b]pyridin-5-yl)piperidin-3-yl)(pyrrolidin-1-yl)methanone]"
